Source: patent US7605168B2 (Plexxikon, Inc., priority 2004, dated 2009)

Legend:
[1] = system: TNF-α release from whole blood cultures stimulated with LPS; assay: IC50 by TNF alpha production upon stimulation of whole blood cultures with LPS; format: cell-based; conditions: human whole blood (buffy coat) culture, 100 ng/ml LPS, 4 hours; read-out: h TNFα IC50
Summary of the method: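 Human buffy coat, diluted with 7 volumes of RPMI/2.5% heat-inactivated FBS, was preincubated with compound (8-point 1:3 series) for 1 h at 37 °C. It was then stimulated with 100 ng/ml LPS (final) for 4 h. Supernatant TNF-α was measured by sandwich ELISA at 450 nm, and IC50 was set between DMSO (0%) and PDE4-inhibitor (100%) controls.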

[2] = target: T1, PDE4B2: full-length human PDE4B2 isozyme (Homo sapiens, UniProt Q07343); assay: PDE4 IC50 determination by Scintillation Proximity Assay (SPA), full-length PDE4B2; format: biochemical; conditions: cell lysate, [3H]cAMP SPA
T1 construct: made in house; host or cells: baculovirus infected insect cells (pFastBacHT)
T1 sequence (Q07343 with tags, fused parts or gaps isoform Q07343-2): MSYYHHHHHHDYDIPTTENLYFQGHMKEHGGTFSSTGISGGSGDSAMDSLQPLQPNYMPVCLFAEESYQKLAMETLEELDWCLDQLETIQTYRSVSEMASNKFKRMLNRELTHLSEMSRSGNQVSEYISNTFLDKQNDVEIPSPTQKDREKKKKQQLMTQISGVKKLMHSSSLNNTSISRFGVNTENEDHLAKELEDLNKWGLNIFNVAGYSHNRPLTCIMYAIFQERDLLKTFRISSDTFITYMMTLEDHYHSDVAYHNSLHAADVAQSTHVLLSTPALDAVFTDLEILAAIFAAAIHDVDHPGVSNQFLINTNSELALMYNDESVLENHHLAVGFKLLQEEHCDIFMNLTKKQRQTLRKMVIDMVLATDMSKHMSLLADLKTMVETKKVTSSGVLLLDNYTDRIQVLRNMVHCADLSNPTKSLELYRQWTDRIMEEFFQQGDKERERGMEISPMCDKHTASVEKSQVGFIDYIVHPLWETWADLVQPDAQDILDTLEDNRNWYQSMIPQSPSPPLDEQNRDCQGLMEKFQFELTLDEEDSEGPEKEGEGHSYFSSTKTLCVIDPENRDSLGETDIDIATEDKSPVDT
Summary of the method: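 Unpurified enzyme from cell lysates (PDE4B2 2.5 μl, PDE4D5 0.083 μl of 50% glycerol stock/ml) hydrolysing [3H]cAMP in 50 mM Tris pH 7.5, 8.3 mM MgCl, 1.7 mM EGTA, 0.01% BSA, 30 min at 30 °C. Stopped with yttrium silicate SPA beads in 18 mM ZnSO4; bead-bound [3H]AMP counted. IC50 by non-linear regression.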

SMILES	IC50 [1] [µM]	IC50 [2] [µM]
CCOc1ccc2ccccc2c1C(=O)n1cc(-c2ccc(OC)c(OC)c2)c2cccnc21 [Compound 52, [3-(3,4-Dimethoxy-phenyl)-pyrrolo[2,3-b]pyridin-1-yl]-(2-ethoxy-naphthalen-1-yl)-methanone]	≤ 10	< 10
CCOc1ccccc1C(=O)n1cc(-c2ccc(OC)c(OC)c2)c2cccnc21 [Compound 61, [3-(3,4-Dimethoxy-phenyl)-pyrrolo[2,3-b]pyridin-1-yl]-(2-ethoxy-phenyl)-methanone-amide]	≤ 10	< 10
